Data reported in patent US20230234897A1, “USE OF POLYAMINES, TYRAMINE AND/OR A PLANT EXTRACT CONTAINING SAME TO STABILISE MICROORGANISMS” (AGRO INNOVATION INTERNATIONAL, priority 2020, published 2023).

Tested on: Azotobacter chroococcum
Assay: Growth of Azotobacter chroococcum with or without osmotic stress (0.3 M NaCl), glycine betaine versus extract
Format: cell-based
Conditions: for Bacterial concentration at 72 h / Survival rate relative to the strain under non-stressing conditions without addition of the extract / Survival rate relative to the strain under salt stress conditions, without addition of the extract: extract at 10 g of polyamines/kg of medium, glycine betaine quantity not given
Method: The effect of each of the extracts prepared according to example 1a), 1b) or 1c) was studied on the growth of various bacterial strains, under conditions with or without thermal stress, osmotic stress or acid/base stress. The extracts obtained in examples 1a), 1b) or 1c) were added to a culture medium in different quantities, in order to obtain the desired quantities of polyamines and/or tyramine.
The study was carried out in Spizizen Minimal Medium SMM culture broth ((NH4)2SO4: 2 g/L, K2HPO4: 14 g/L, KH2PO4: 6 g/L, MgSO4: 0.2 g/L, C6H5Na3O7·2H2O: 1 g/L, D-glucose: 5 g/L).
The starting inoculate for each strain was calibrated by OD measurement (620 nm) in order to obtain an initial concentration of approximately 10^3-10^4 CFU/mL. The strains were incubated for 24 to 72 h. Counts were performed in TSA agar (Tryptone Soya Agar) at TO and after 24 h, 48 h or 72 h incubation at 30° C. (+/−1° C.), according to the studied strains.
For each of the strains, the survival rate in the presence of the extract and/or stress was calculated relative to the bacterial concentration obtained at the end of the kinetics (at T=24 h, 48 h or 72 h) in the control mode containing the strain alone, under non-stressed conditions, without adding the extract. Similarly, the survival rate in the presence or absence of the extract and/or stress was calculated relative to the bacterial concentration obtained at the end of the kinetics in the mode containing the strain alone, under stress conditions, without adding the extract.
The strain Azotobacter chroococcum was tested under osmotic stress conditions, in other words by adding 0.3 M NaCl to the culture medium at time T=0.
The glycine betaine, known as an osmoprotectant, was tested in comparison with the Ascophyllum nodosum extract prepared according to example 1a).

[1] = non-stressing conditions (no NaCl), 72 h

SMILES: C[N+](C)(C)CC(=O)[O-] [glycine betaine]
- Bacterial concentration at 72 h [1]: 1.1 · 10^8 CFU/mL
- Survival rate relative to the strain under non-stressing conditions without addition of the extract [1]: 0.3 log
- Survival rate relative to the strain under salt stress conditions, without addition of the extract [1]: 5.1 log
- stabilisation of Azotobacter chroococcum under osmotic stress (osmotic stress 0.3 M NaCl): no stabilisation is observed
- loss in the bacterial concentration after 72 h incubation relative to the stress conditions (salt stress 0.3 M NaCl, 72 h): 0.8 logs
- Bacterial concentration at 72 h (salt stress 0.3 M NaCl, 72 h): 1.4 · 10^2 CFU/mL
- Survival rate relative to the strain under non-stressing conditions without addition of the extract (salt stress 0.3 M NaCl, 72 h): −5.6 log
- Survival rate relative to the strain under salt stress conditions, without addition of the extract (salt stress 0.3 M NaCl, 72 h): −0.8 log
